Read-outs that look alike come from different tables or passages of the source. Values belong to the molecule of their own block, whether it stands above or below them.
Columns and labels:
PARP1 [1] = target: T1, PARP1 (Homo sapiens, UniProt P09874); assay: PARP1 enzyme inhibition assay; type: biochemical; conditions: for decrease in PARP1 inhibition potency compared to veliparib: relative to veliparib
PARP1 [2] = target: T1, PARP1; conditions: allosteric-based classification reported earlier; cited from earlier work
PARP1 WT [3] = target: T2, PARP1 WT (UniProt P09874 1-1014); assay: fluorescence polarization
PARP1 WT [4] = target: T2, PARP1 WT; assay: fluorescence polarization; remark: listed apart in the source
PARP1 WT [5] = target: T2, PARP1 WT; assay: fluorescence polarization; remark: listed apart in the source
PARP1 WT [6] = target: T2, PARP1 WT; assay: fluorescence polarization; remark: listed apart in the source
PARP1 WT [7] = target: T2, PARP1 WT; assay: fluorescence polarization; remark: listed apart in the source
PARP1 WT [8] = target: T2, PARP1 WT; assay: fluorescence polarization; remark: listed apart in the source
PARP1 WT [9] = target: T2, PARP1 WT; assay: fluorescence polarization; remark: listed apart in the source
PARP1 WT [10] = target: T2, PARP1 WT; assay: fluorescence polarization; remark: listed apart in the source
PARP1 WT [11] = target: T2, PARP1 WT; assay: fluorescence polarization; remark: listed apart in the source
PARP1 WT [12] = target: T2, PARP1 WT; assay: fluorescence polarization; remark: listed apart in the source
PARP1 WT [13] = target: T2, PARP1 WT; assay: fluorescence polarization; remark: listed apart in the source
PARP1 WT [14] = target: T2, PARP1 WT; assay: fluorescence polarization; remark: listed apart in the source
PARP1 WT [15] = target: T2, PARP1 WT; assay: fluorescence polarization; remark: listed apart in the source
[16] = target: PARP1 Zn1-Zn3 ΔZn2;PARP1 WGR-CAT ΔVE (Homo sapiens?;Homo sapiens?, UniProt P09874;P09874 1-366;518-1014, del97-206|del687-688); assay: X-ray crystallography
[17] = read-out: PARP1 IC50, 10-point concentration-response curve, average of at least two independent experiments

Molecule: NC(=O)c1cccc2[nH]c(-c3ccc(C(=O)N4CCN(c5nc6ccccc6[nH]5)CC4)cc3)nc12 [Compound 8, 2-(4-(4-(1H-Benzo[d]imidazol-2-yl)piperazine-1-carbonyl)phenyl)-1H-benzo[d]imidazole-4-carboxamide]
IC50 (PARP1 [1]): 6.2 nM

Molecule: CNCc1ccc(-c2[nH]c3cc(F)cc4c3c2CCNC4=O)cc1 [rucaparib]
allosteric PARPi type (PARP1 [2]): Type III

Molecule: NC(=O)c1cccc2cn(-c3ccc([C@@H]4CCCNC4)cc3)nc12 [niraparib]
allosteric PARPi type (PARP1 [2]): Type III

Molecule: NC(=O)c1cccc2[nH]c(-c3ccc(C(=O)N4CCn5c(nnc5C(F)(F)F)C4)cc3)nc12 [Compound 12, 2-(4-(3-(Trifluoromethyl)-5,6,7,8-tetrahydro-[1,2, 4]triazolo[4,3-a]pyrazine-7-carbonyl)phenyl)-1H-benzo[d]imidazole-4-carboxamide]
IC50 (PARP1 [1]; [17]): 25.4 nM

Molecule: Cl.Cl.Nc1ncnc2c1ncn2[C@@H]1O[C@H](C(=O)N2CCN(CC(=O)Nc3cccc4c3CNC4=O)CC2)[C@@H](O)[C@H]1O [EB-47]
allosteric PARPi type (PARP1 [2]): Type I

Molecule: C[C@]1(c2nc3c(C(N)=O)cccc3[nH]2)CCCN1 [Veliparib]
allosteric PARPi type (PARP1 [2]): Type III

Molecule: NC(=O)c1cccc([C@@H]2O[C@H](COP(=O)(O)OP(=O)(O)OC[C@H]3O[C@@H](n4cnc5c(N)ncnc54)[C@H](O)[C@@H]3O)[C@@H](O)[C@H]2O)c1 [BAD, benzamide adenine dinucleotide]
allosteric PARPi type (PARP1 [2]): Type I

Molecule: NC(=O)c1cccc2[nH]c(-c3cccc(C(=O)N4CCn5c(nnc5C(F)(F)F)C4)c3)nc12 [Compound 13, 2-(3-(3-(Trifluoromethyl)-5,6,7,8-tetrahydro-[1,2, 4]triazolo[4,3-a]pyrazine-7-carbonyl)phenyl)-1H-benzo[d]imidazole-4-carboxamide]
IC50 (PARP1 [1]; [17]): 25.4 nM

B1: 18-bp DNA duplex (dsDNA)
DNA 1: GGGTTGCGGCCGCTTGGG
DNA 2: CCCAAGCGGCCGCAACCC
Kd (PARP1 WT [3]): 11.8 ± 4.7 nM | Kd (PARP1 WT [4]): 112 ± 31.2 nM | Kd (PARP1 WT [5]): 210 ± 25 nM | Kd (PARP1 WT [6]): 47.7 ± 5.4 nM | Kd (PARP1 WT [7]): 29 ± 5.2 nM | Kd (PARP1 WT [8]): 62.2 ± 14.6 nM | Kd (PARP1 WT [9]): 52.3 ± 3.2 nM | Kd (PARP1 WT [10]): 41.7 ± 11.4 nM | Kd (PARP1 WT [11]): 82.1 ± 1.8 nM | Kd (PARP1 WT [12]): 61.7 ± 25.3 nM | Kd (PARP1 WT [13]): 4.5 ± 1.7 nM | Kd (PARP1 WT [14]): 61.9 ± 14.4 nM | Kd (PARP1 WT [15]): 117 ± 16.8 nM

B2: 5-bp DNA duplex (dsDNA)
DNA 1: CGACG
DNA 2: CGTCG
binding result [16]: binds

More lines, main results first:

IC50 (PARP1 [1]): 17.3 nM
Molecule: Cc1cc(N)c(NC(=O)c2cccc(-c3nc4c(C(N)=O)cccc4[nH]3)c2)cc1C [Compound 14, 2-(3-((2-Amino-4,5-dimethylphenyl)carbamoyl)phenyl)-1H-benzo[d]imidazole-4-carboxamide]

IC50 (PARP1 [1]): 3.9 nM
Molecule: NC(=O)c1cccc2[nH]c(-c3cccc(C(=O)N4CCN(c5nc6ccccc6[nH]5)CC4)c3)nc12 [Compound 9, 2-(3-(4-(1H-Benzo[d]imidazol-2-yl)piperazine-1-carbonyl)phenyl)-1H-benzo[d]imidazole-4-carboxamide]

IC50 (PARP1 [1]): 11.9 nM | decrease in PARP1 inhibition potency compared to veliparib (PARP1 [1]): approximately nine
Molecule: NC(=O)c1cccc2[nH]c(-c3ccc(C(=O)N4CCN(c5ncccn5)CC4)cc3)nc12 [Compound 4, 2-(4-(4-(Pyrimidin-2-yl)piperazine-1-carbonyl)phenyl)-1H-benzo[d]imidazole-4-carboxamide]

IC50 (PARP1 [1]): 8.9 nM
Molecule: NC(=O)c1cccc2[nH]c(-c3cccc(C(=O)N4CCN(c5ncccn5)CC4)c3)nc12 [Compound 5, 2-(3-(4-(Pyrimidin-2-yl)piperazine-1-carbonyl)phenyl)-1H-benzo[d]imidazole-4-carboxamide]

IC50 (PARP1 [1]): 121 nM | decrease in PARP1 inhibition potency compared to veliparib (PARP1 [1]): ~ 100 fold
Molecule: NC(=O)c1cccc2[nH]c(-c3cccc(C(=O)NCCc4nc5ccccc5[nH]4)c3)nc12 [Compound 11, 2-(3-((2-(1H-Benzo[d]imidazol-2-yl)ethyl)carbamoyl)phenyl)-1H-benzo[d]imidazole-4-carboxamide]

IC50 (PARP1 [1]): 3.1 nM
Molecule: NC(=O)c1cccc2[nH]c(-c3ccc(C(=O)NCCc4nc5ccccc5[nH]4)cc3)nc12 [Compound 10, 2-(4-((2-(1H-Benzo[d]imidazol-2-yl)ethyl)carbamoyl)phenyl)-1H-benzo[d]imidazole-4-carboxamide]

IC50 (PARP1 [1]): 2.8 nM
Molecule: COC(=O)c1cnc(N2CCN(C(=O)c3ccc(-c4nc5c(C(N)=O)cccc5[nH]4)cc3)CC2)nc1 [UKTT15 (6), Methyl 2-(4-(4-(4-carbamoyl-1H-benzo[d]imidazol-2-yl)benzoyl)piperazin-1-yl)pyrimidine-5-carboxylate]
allosteric PARPi type (PARP1 [2]): Type I

IC50 (PARP1 [1]): > 10 nM | inhibition at 0.01 µM (PARP1 [1]; read-out: PARP1 inhibition at 10 nM): 37%
Molecule: NC(=O)c1cccc2[nH]c(-c3ccc(C(=O)N4CCN(c5ncc(C(=O)O)cn5)CC4)cc3)nc12 [Compound 7, Sodium 2-(4-(4-(4-carbamoyl-1H-benzo[d]imidazol-2-yl)benzoyl)piperazin-1-yl)pyrimidine-5-carboxylate]

From publication PMC11070930 (The Biochemical journal, 2024)
